Source: patent US11242344B2, “(4-hydroxypyrrolidin-2-yl)-heterocyclic compounds and methods of use thereof” (Genentech, Inc., priority 2017, dated 2022)

Columns and labels:
[1] = target: BRD4 (Homo sapiens (Human), UniProt O60885); assay: BRD4 degradation assay in EOL-1 cells, high content fluorescence imaging; assay type: cell-based; details: 4 hours; for DC50: BRD4 immunofluorescence, read-out: EOL-1 EC50; for EOL-1 Sinf (%): maximum degradation, percent change in protein level (-100% = complete loss)
Experimental: PC3 (Steap-1) prostate cancer cells: PC3 (Steap-1) prostate cancer cells (PC3 cells overexpressing the surface protein Steap-1) were seeded on day 1 at a density of 200,000 cells/mL in 45 μl/well in cell plates in a 384 well Greiner/Perkin Elmer Cell Carrier TC Treated plate (part #6007430) in Assay Medium (RPMI, 10% FBS, 2 mM Glutamax). Cells were incubated overnight at 37° C. degrees. On day 2, compounds were serially diluted 3-fold in DMSO spanning the concentrations 10 mM to 8.6 nM, in 384 well clear polypropylene plates (Greiner Cat #781201). DMSO and 10 mM of a control PROTAC (dBET1, as described in WO 2017/024317, p. 235, structure below) (control compound) were added to designated wells. Compounds and controls were diluted 50-fold (2 μl of DMSO stock into 98 μl) into Assay Medium. 5 μl of the diluted compounds was transferred to the cell plates. The final top concentration of the test compounds in the cell plates was 20 μM. Cell plates were incubated at 37° C., for 4 hours. Fixation and permeabilization were carried out using a Biotek EL406 plate washer and dispenser as follows. Cells were fixed by addition of 15 μL of 16% paraformaldehyde (Electron Microscopy Sciences #15710-S) directly to the 50 μL cell culture medium in each well using the peristaltic pump 5 μL cassette on a Biotek EL406 (final concentration of formaldehyde was 3.7% w/v). Samples were incubated 30 minutes. Well contents were aspirated and 50 μL/well of Phosphate Buffered Saline (PBS) containing 0.5% w/v bovine serum albumen, 0.5% v/v Triton X-100 (Antibody Dilution Buffer) was added to each well. Samples were incubated for 30 minutes. Well contents were aspirated and washed 3 times with 100 μL/well of PBS.
EOL-1 cells: The BRD4 degradation assay was performed on EOL-1 cells using the same procedure as described above for PC3 (Steap-1) prostate cancer cells, except EOL-1 cells were seeded at 1,000,000 cells/mL. Following aspiration and washing of the well contents with 100 μL/well of PBS, 40 μL PBS plus 10% normal goat serum was added per well for 20 minutes at room temperature.
For both the PC3 and EOL-1 cell assays, immunofluorescence staining of BRD4 was carried out using a Biotek EL406 plate washer and dispenser as follows. The well supernatant was aspirated from the wells and 25 μL/well of rabbit mAb Anti-BRD4 [EPR5150(2)] abeam 128874 diluted 1:500 in Antibody Dilution Buffer is dispensed. Samples were incubated for 2 hours at room temperature. Samples were washed 4 times with 100 μL/well of PBS. 25 μL/well of secondary antibody solution (Goat Anti-Rabbit IgG, DyLight 488 Conjugated Highly Cross-adsorbed #35553 1:1000) diluted 1:1000 and Hoechst 33342 1 μg/ml diluted in Antibody Dilution Buffer) were dispensed into each well. 16 wells of the plate, which were designated as ‘no primary antibody” wells, received only Antibody Dilution Buffer (without anti-BRD4 antibody). Samples were incubated for 2 hours at room temperature. Samples were washed 3 times with 100 μL/well of PBS using a Biotek EL406. Quantitative fluorescence imaging of BRD4 was carried out using a Phenix (Perkin Elmer). Fluorescence images of the samples (Channel 1: Hoechst33342 (DNA stain); Channel 2: 488 nm (BRD4 stain)) were acquired. Channel 1 (DNA stain) was used to define the “Region of Interest” (ROI) nuclear region. Measurements of BRD4 average immunofluorescence intensity within the ROI (nuclear region), were made on a per cell basis and averaged over all the measured cells. Data analysis was carried out using Genedata Screener Software, with DMSO and “no primary antibody” samples being used to define the 0% and 100% changes in BRD4. The “Robust Fit” method was used to define the inflexion point of curve (EC50) and the plateau of the maximal effect (Sinf). The Sinf value reports degradation as percent change in protein level, so complete loss of the protein target is −100%. […]

[2] = test system: MYC expression; assay: Inhibition of MYC expression in MV-4-11 cells; assay type: cell-based; details: 4 h; for IC50: QuantiGene 2.0, geometric mean; for Maximum Inhibition (%): maximum inhibition of MYC expression
Experimental: Pharmacologic inhibition of MYC is achievable through targeting BET bromodomains through small molecule binder or degrader mechanisms. Such inhibitors may have clinical utility given the widespread pathogenetic role of MYC in cancer. See, e.g., Mertz J, et al., “Targeting MYC dependence in cancer by inhibiting BET bromodomains,” (2011) Proc. Natl. Acad. Sci. USA, Vol. 108 (40), pp. 16669-16674.
To determine the inhibition of MYC expression, MV-4-11 cells (ATCC) were plated at 10,000 cells per well in 96-well plates in RPMI1640 media supplemented with 10% fetal bovine serum and 2 mM L-glutamine. Test compounds diluted in DMSO were transferred to the cell plates, keeping final DMSO concentration consistent at 0.1%, and incubated for 4 h at 37° C. Lysis and analysis for MYC expression were carried out using QuantiGene 2.0 reagents (Affymetrix/eBioscience, probe set cat #SA-50182) and following the vendor's instructions. Luminescence was read using an EnVision plate reader (PerkinElmer) and IC50s generated in Genedata Screener using a 4-parameter non-linear regression fit.
Effective degraders will surpass this and inhibit >95% of MYC, thus following the maximum inhibition within this assay provides valuable SAR. Where more than one measurement was performed for the same assay, the value reported is the geometric mean of all values.

Row | DC50 [1] | EOL-1 Sinf (%) [1] | IC50 [2] | Structure (SMILES) | Maximum Inhibition (%) [2]
1 | 1.02 nM | −92.6% |  | Cc1ncsc1-c1ccc([C@]2(C)NC([C@@H]3C[C@@H](O)CN3C(=O)C(NC(=O)CCCCCCCCCCNC(=O)c3cc4c(cc3CS(C)(=O)=O)-c3cn(C)c(=O)c5[nH]cc(c35)CN4c3ncc(F)cc3F)C(C)(C)C)=NO2)cc1 (single isomer, unassigned) [Example 1006.1] | 
2 | > 20000 nM |  | 51.5 nM | Cc1ncsc1-c1ccc(C2(C)NC(C3C[C@@H](O)CN3C(=O)C(c3cc(OCCN4CC[C@H](NC(=O)c5cc6c(cc5CS(C)(=O)=O)-c5cn(C)c(=O)c7[nH]cc(c57)CN6c5ncc(F)cc5F)C4)no3)C(C)C)=NC2=O)cc1 (single isomer, unassigned) [Example 1002.1] | 76.4%
3 | 0.31 nM | −65.0% | 25.7 nM | Cc1ncsc1-c1ccc(C2(C)NC(C3C[C@@H](O)CN3C(=O)C(c3cc(OCCN4CC[C@H](NC(=O)c5cc6c(cc5CS(C)(=O)=O)-c5cn(C)c(=O)c7[nH]cc(c57)CN6c5ncc(F)cc5F)C4)no3)C(C)C)=NC2=O)cc1 (single isomer, unassigned) [Example 1002.2] | 90.3%
